Reference: patent publication US20090069320A1, “Substituted 4-Amino-Quinazoline Compounds with Metabotropic Glutamate Receptor Regulating Activity and Uses Thereof” (Gruenenthal GmbH, priority 2006, published 2009)

biological target: T1, mGluR5 receptor (Sus scrofa, UniProt I3LUI7); test: [3H]-MPEP mGluR5 receptor binding assay (pig brain homogenate); conditions: 5 nM [3H]-MPEP, read-out: IC50 mGluR5 Receptor (pig) [^3H]-MPEP Bond
T1 construct: 450 μg of protein from brain homogenate with 5 nM ^3[H]-MPEP; from tissue; host or cells: pig brain halves without medulla, cerebellum and pons
T1 sequence (I3LUI7 19-1212): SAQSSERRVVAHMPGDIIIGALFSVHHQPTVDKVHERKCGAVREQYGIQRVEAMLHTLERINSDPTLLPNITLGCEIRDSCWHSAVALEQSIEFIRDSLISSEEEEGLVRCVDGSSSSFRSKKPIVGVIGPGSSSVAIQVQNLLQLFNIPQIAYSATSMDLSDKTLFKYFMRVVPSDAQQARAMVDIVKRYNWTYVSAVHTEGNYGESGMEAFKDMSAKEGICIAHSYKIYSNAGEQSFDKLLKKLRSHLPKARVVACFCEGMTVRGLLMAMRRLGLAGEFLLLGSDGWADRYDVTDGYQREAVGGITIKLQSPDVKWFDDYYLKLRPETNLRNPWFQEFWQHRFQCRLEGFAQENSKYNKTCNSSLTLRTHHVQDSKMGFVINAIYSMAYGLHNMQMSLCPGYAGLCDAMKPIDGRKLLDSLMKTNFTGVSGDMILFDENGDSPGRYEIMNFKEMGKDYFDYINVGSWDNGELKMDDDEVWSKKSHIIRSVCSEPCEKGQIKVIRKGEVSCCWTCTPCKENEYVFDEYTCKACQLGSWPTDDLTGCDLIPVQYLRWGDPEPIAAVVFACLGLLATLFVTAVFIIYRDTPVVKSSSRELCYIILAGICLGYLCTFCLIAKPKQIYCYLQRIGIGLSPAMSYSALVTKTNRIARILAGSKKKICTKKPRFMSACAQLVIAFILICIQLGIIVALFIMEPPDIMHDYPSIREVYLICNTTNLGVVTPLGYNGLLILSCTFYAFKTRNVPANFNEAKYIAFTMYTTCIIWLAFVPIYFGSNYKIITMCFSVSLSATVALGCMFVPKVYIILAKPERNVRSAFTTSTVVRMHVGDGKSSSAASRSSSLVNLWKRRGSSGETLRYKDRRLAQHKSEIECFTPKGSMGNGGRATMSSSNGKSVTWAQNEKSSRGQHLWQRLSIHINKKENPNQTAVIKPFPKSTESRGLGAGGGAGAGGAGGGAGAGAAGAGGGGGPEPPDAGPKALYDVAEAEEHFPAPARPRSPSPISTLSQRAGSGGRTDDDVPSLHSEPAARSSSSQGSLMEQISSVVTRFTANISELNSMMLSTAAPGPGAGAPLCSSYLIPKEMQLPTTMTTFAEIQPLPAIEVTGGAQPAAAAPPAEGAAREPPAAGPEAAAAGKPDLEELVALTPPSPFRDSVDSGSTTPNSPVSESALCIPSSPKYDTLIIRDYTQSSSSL
Outline: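 Compounds at 10 μM competed with 5 nM [3H]-MPEP for binding to pig brain membranes (450 μg protein) for 60 min at room temperature in pH 8.0 Hepes buffer. Bound radioactivity was collected on glass-fibre filters and read by β-counting, with 10 μM unlabelled MPEP giving non-specific binding.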

`CS(=O)(=O)N(Cc1cccc(-c2cc(F)c3ncnc(NC4CC4)c3c2)c1)C1CC1` [Example 678, N-cyclopropyl-N-(3-(4-(cyclopropylamino)-8-fluoroquinazolin-6-yl)benzyl)methane sulfonamide] was tested. Which IC50 did it give?
The IC50 was 220 nM.

same assay, conditions: 10 μM compound, 5 nM [3H]-MPEP

`COc1ccc(S(=O)(=O)N(Cc2cccc(-c3cc4c(NC5CC5)ncnc4cc3C)c2)C2CC2)cc1` [Example 659, N-cyclopropyl-N-(3-(4-(cyclopropylamino)-7-methylquinazolin-6-yl)benzyl)-4-methoxybenzole sulfonamide] was tested. Which “% Inhibition of mGluR5 Receptor (pig) [^3H]-MPEP Bond at 10 μM” value (from here on “% Inhibition of mGluR5 Receptor (pig)”) did it give?
Its value is 86%.

For `Cc1cc2ncnc(NC3CC3)c2cc1-c1cccc(CN(C2CC2)S(=O)(=O)c2ccc(Cl)cc2Cl)c1` [Example 667, 2,4-dichloro-N-cyclopropyl-N-(3-(4-(cyclopropylamino)-7-methylquinazolin-6-yl)benzyl)benzole sulfonamide], which “% Inhibition of mGluR5 Receptor (pig)” value is on record?
Its value is 40%.

Which “% Inhibition of mGluR5 Receptor (pig)” value does the source give for `Cc1cc2ncnc(NC3CC3)c2cc1-c1cccc(CN(C2CC2)S(=O)(=O)c2c(F)c(F)c(F)c(F)c2F)c1` [Example 675, N-cyclopropyl-N-(3-(4-(cyclopropylamino)-7-methylquinazolin-6-yl)benzyl)-2,3,4,5,6-pentafluorobenzole sulfonamide] here?
Its value is 48%.

How did the “% Inhibition of mGluR5 Receptor (pig)” value turn out when `O=S(=O)(c1cccc(C(F)(F)F)c1)N(Cc1cccc(-c2cc(F)c3ncnc(NC4CC4)c3c2)c1)C1CC1` [Example 686, N-cyclopropyl-N-(3-(4-(cyclopropylamino)-8-fluoroquinazolin-6-yl)benzyl)-3-(trifluoromethyl)benzole sulfonamide] was run?
Its value is 68%.

same assay, conditions: 10 μM compound, 5 nM [3H]-MPEP, read-out: % Inhibition of mGluR5 Receptor (pig) [^3H]-MPEP Bond at 10 μM

With `Cc1nc(NC2CC2)c2cc(-c3ccc(F)c(CN(C(=O)c4ccccn4)C4CC4)c3)ccc2n1` [Example 604, N-cyclopropyl-N-(5-(4-(cyclopropylamino)-2-methylquinazolin-6-yl)-2-fluorobenzyl)picolinamide] as the compound, how does the inhibition at 10 µM read?
The inhibition at 10 µM was 41%.

For `Cc1nc(C(=O)N(Cc2cc(-c3ccc4ncnc(NC5CC5)c4c3)ccc2F)C2CC2)cs1` [Example 605, N-cyclopropyl-N-(5-(4-(cyclopropylamino)quinazolin-6-yl)-2-fluorobenzyl)-2-methylthiazole-4-carboxamide], which inhibition at 10 µM is on record?
Its inhibition at 10 µM is 94%.

`Cc1nc(NC2CC2)c2cc(-c3ccc(F)c(CN(C(=O)c4ccncc4)C4CC4)c3)ccc2n1` [Example 608, N-cyclopropyl-N-(5-(4-(cyclopropylamino)-2-methylquinazolin-6-yl)-2-fluorobenzyl)isonicotinamide] was tested. Which inhibition at 10 µM did it give?
The inhibition at 10 µM was 36%.

How did the inhibition at 10 µM turn out when `Cc1nc(C(=O)N(Cc2cccc(-c3ccc4ncnc(NCCc5ccccc5)c4c3)c2)C2CC2)cs1` [Example 609, N-cyclopropyl-2-methyl-N-(3-(4-(phenethylamino)quinazolin-6-yl)benzyl)thiazole-4-carboxamide] was run?
Its inhibition at 10 µM is 30%.

With `O=C(c1ccc(F)cc1F)N(Cc1cccc(-c2cc(F)c3ncnc(NC4CC4)c3c2)c1)C1CC1` [Example 619, N-cyclopropyl-N-(3-(4-(cyclopropylamino)-8-fluoroquinazolin-6-yl)benzyl)-2,4-difluorobenzamide] as the compound, how does the inhibition at 10 µM read?
The inhibition at 10 µM was 98%.

Which inhibition at 10 µM does the source give for `Cc1nc(NC2CC2)c2cc(-c3ccc(F)c(CN(C(=O)c4csc(C)n4)C4CC4)c3)ccc2n1` [Example 624, N-cyclopropyl-N-(5-(4-(cyclopropylamino)-2-methylquinazolin-6-yl)-2-fluorobenzyl)-2-methylthiazole-4-carboxamide] here?
Its inhibition at 10 µM is 75%.

Which inhibition at 10 µM does the source give for `Cc1nc(NC2CC2)c2cc(-c3ccc(F)c(CN(C(=O)C4CCCCC4)C4CC4)c3)ccc2n1` [Example 639, N-cyclopropyl-N-(5-(4-(cyclopropylamino)-2-methylquinazolin-6-yl)-2-fluorobenzyl)cyclohexane carboxamide] here?
The inhibition at 10 µM was 46%.

`Cc1nc(NC2CC2)c2cc(-c3ccc(F)c(CN(C(=O)Cc4ccccc4)C4CC4)c3)ccc2n1` [Example 644, N-cyclopropyl-N-(5-(4-(cyclopropylamino)-2-methylquinazolin-6-yl)-2-fluorobenzyl)-2-phenylacetamide] was tested. Which inhibition at 10 µM did it give?
The inhibition at 10 µM was 85%.

`CC(C)(C)C(=O)N(Cc1cc(-c2ccc3ncnc(NC4CC4)c3c2)ccc1F)C1CC1` [Example 645, N-cyclopropyl-N-(5-(4-(cyclopropylamino)quinazolin-6-yl)-2-fluorobenzyl)pivalamide] was tested. Which inhibition at 10 µM did it give?
The inhibition at 10 µM was 90%.

For `Cc1cc2ncnc(NC3CC3)c2cc1-c1cccc(CN(C(=O)c2cccc(F)c2)C2CC2)c1` [Example 652, N-cyclopropyl-N-(3-(4-(cyclopropylamino)-7-methylquinazolin-6-yl)benzyl)-3-fluorobenzamide], which inhibition at 10 µM is on record?
The inhibition at 10 µM was 93%.

With `Cc1cc2ncnc(NC3CC3)c2cc1-c1cccc(CN(C(=O)C2CCCCC2)C2CC2)c1` [Example 653, N-cyclopropyl-N-(3-(4-(cyclopropylamino)-7-methylquinazolin-6-yl)benzyl)cyclohexane carboxamide] as the compound, how does the inhibition at 10 µM read?
Its inhibition at 10 µM is 66%.

With `CCCCC(=O)N(Cc1cccc(-c2cc(F)c3ncnc(NC4CC4)c3c2)c1)C1CC1` [Example 654, N-cyclopropyl-N-(3-(4-(cyclopropylamino)-8-fluoroquinazolin-6-yl)benzyl)pentanamide] as the compound, how does the inhibition at 10 µM read?
The inhibition at 10 µM was 82%.

How did the inhibition at 10 µM turn out when `COc1ccc(CNc2ncnc3ccc(-c4cccc(CN(C(C)=O)C5CC5)c4)cc23)c(OC)c1` [Example 657, N-cyclopropyl-N-(3-(4-(2,4-dimethoxybenzylamino)quinazolin-6-yl)benzyl)acetamide] was run?
Its inhibition at 10 µM is 36%.

For `Cc1cc2ncnc(NC3CC3)c2cc1-c1cccc(CN(C(=O)c2ccc(F)cc2F)C2CC2)c1` [Example 660, N-cyclopropyl-N-(3-(4-(cyclopropylamino)-7-methylquinazolin-6-yl)benzyl)-2,4-difluorobenzamide], which inhibition at 10 µM is on record?
Its inhibition at 10 µM is 94%.

How did the inhibition at 10 µM turn out when `Cc1cc2ncnc(NC3CC3)c2cc1-c1cccc(CN(C(=O)Cc2ccccc2)C2CC2)c1` [Example 661, N-cyclopropyl-N-(3-(4-(cyclopropylamino)-7-methylquinazolin-6-yl)benzyl)-2-phenylacetamide] was run?
The inhibition at 10 µM was 89%.

`O=C(C1CCCCC1)N(Cc1cccc(-c2cc(F)c3ncnc(NC4CC4)c3c2)c1)C1CC1` [Example 662, N-cyclopropyl-N-(3-(4-(cyclopropylamino)-8-fluoroquinazolin-6-yl)benzyl)cyclohexane carboxamide] was tested. Which inhibition at 10 µM did it give?
Its inhibition at 10 µM is 54%.

How did the inhibition at 10 µM turn out when `Cc1nc(NC2CC2)c2cc(-c3cccc(CN(C(=O)c4ccccc4C(F)(F)F)C4CC4)c3)ccc2n1` [Example 666, N-cyclopropyl-N-(3-(4-(cyclopropylamino)-2-methylquinazolin-6-yl)benzyl)-2-(trifluoromethyl)benzamide] was run?
The inhibition at 10 µM was 43%.

Which inhibition at 10 µM does the source give for `Cc1cc2ncnc(NC3CC3)c2cc1-c1cccc(CN(C(=O)c2ccc(C(F)(F)F)cc2F)C2CC2)c1` [Example 668, N-cyclopropyl-N-(3-(4-(cyclopropylamino)-7-methylquinazolin-6-yl)benzyl)-2-fluoro-4-(trifluoromethyl)benzamide] here?
Its inhibition at 10 µM is 88%.

`Cc1cc2ncnc(NC3CC3)c2cc1-c1cccc(CN(C(=O)CCc2ccccc2)C2CC2)c1` [Example 669, N-cyclopropyl-N-(3-(4-(cyclopropylamino)-7-methylquinazolin-6-yl)benzyl)-3-phenylpropanamide] was tested. Which inhibition at 10 µM did it give?
The inhibition at 10 µM was 77%.

`O=C(Cc1ccccc1)N(Cc1cccc(-c2cc(F)c3ncnc(NC4CC4)c3c2)c1)C1CC1` [Example 670, N-cyclopropyl-N-(3-(4-(cyclopropylamino)-8-fluoroquinazolin-6-yl)benzyl)-2-phenylacetamide] was tested. Which inhibition at 10 µM did it give?
The inhibition at 10 µM was 79%.

For `CNc1ncnc2ccc(-c3cccc(CN(C(=O)c4ccno4)c4ccccc4F)c3)cc12` [Example 671, N-(2-fluorophenyl)-N-(3-(4-(methylamino)quinazolin-6-yl)benzyl)isoxazole-5-carboxamide], which inhibition at 10 µM is on record?
The inhibition at 10 µM was 40%.

How did the inhibition at 10 µM turn out when `Cc1cc2ncnc(NC3CC3)c2cc1-c1cccc(CN(C(=O)c2cccc(C(F)(F)F)c2)C2CC2)c1` [Example 676, N-cyclopropyl-N-(3-(4-(cyclopropylamino)-7-methylquinazolin-6-yl)benzyl)-3-(trifluoromethyl)benzamide] was run?
The inhibition at 10 µM was 75%.

Which inhibition at 10 µM does the source give for `O=C(c1ccco1)N(Cc1cccc(-c2cc(F)c3ncnc(NC4CC4)c3c2)c1)C1CC1` [Example 677, N-cyclopropyl-N-(3-(4-(cyclopropylamino)-8-fluoroquinazolin-6-yl)benzyl)furan-2-carboxamide] here?
The inhibition at 10 µM was 93%.

How did the inhibition at 10 µM turn out when `Cc1cc2ncnc(NC3CC3)c2cc1-c1cccc(CN(C2CC2)S(=O)(=O)c2cccc3cccnc23)c1` [Example 683, N-cyclopropyl-N-(3-(4-(cyclopropylamino)-7-methylquinazolin-6-yl)benzyl)quinoline-8-sulfonamide] was run?
Its inhibition at 10 µM is 31%.

For `Cc1cc2ncnc(NC3CC3)c2cc1-c1cccc(CN(C(=O)c2ccccc2C(F)(F)F)C2CC2)c1` [Example 684, N-cyclopropyl-N-(3-(4-(cyclopropylamino)-7-methylquinazolin-6-yl)benzyl)-2-(trifluoromethyl)benzamide], which inhibition at 10 µM is on record?
Its inhibition at 10 µM is 96%.

How did the inhibition at 10 µM turn out when `O=C(c1cccs1)N(Cc1cccc(-c2cc(F)c3ncnc(NC4CC4)c3c2)c1)C1CC1` [Example 685, N-cyclopropyl-N-(3-(4-(cyclopropylamino)-8-fluoroquinazolin-6-yl)benzyl)thiophene-2-carboxamide] was run?
The inhibition at 10 µM was 81%.

For `CNc1ncnc2ccc(-c3cccc(CN(C(=O)c4cccc(F)c4)c4ccccc4F)c3)cc12` [Example 687, 3-fluoro-N-(2-fluorophenyl)-N-(3-(4-(methylamino)quinazolin-6-yl)benzyl)benzamide], which inhibition at 10 µM is on record?
The inhibition at 10 µM was 60%.

For `COc1ccc(CNc2ncnc3ccc(-c4cccc(CN(C(=O)CN(C)C)C5CC5)c4)cc23)c(OC)c1` [Example 689, N-cyclopropyl-N-(3-(4-(2,4-dimethoxybenzylamino)quinazolin-6-yl)benzyl)-2-(dimethylamino)acetamide], which inhibition at 10 µM is on record?
Its inhibition at 10 µM is 41%.
